The values below are quoted from earlier work in patent publication US20050222163A1, “Combinations of signal transduction inhibitors” (PFIZER INC, priority 2004, published 2005).

Data set [1] concerns phosphorylated ERK1 and ERK2. The following applies: background statement, result in words.
For data set [2] the following is noted: comparison with predecessor CI-1040, result in words.

Turning to `O=C(NOCC1CC1)c1ccc(F)c(F)c1Nc1ccc(I)cc1Cl` [CI-1040, 2-(2-Chloro-4-iodo-phenylamino)-N-cyclopropylmethoxy-3,4-difluoro-benzamide, reference compound], the “levels of phosphorylated ERK1 and ERK2” value in data set [1] is “significant decrease”.

`O=C(NOC[C@H](O)CO)c1ccc(F)c(F)c1Nc1ccc(I)cc1F` [N-[(R)-2,3-Dihydroxy-propoxy]-3,4-difluoro-2-(2-fluoro-4-iodo-phenylamino)-benzamide]: the “levels of phosphorylated ERK1 and ERK2” value in data set [1] is “significantly inhibits the phosphorylation of ERK1 and ERK2”. The “metabolic stability relative to CI-1040” value in data set [2] is “metabolically more stable”.
